From ChEMBL document CHEMBL5053514, “Synthesis and Anti-Influenza Virus Effects of Novel Substituted Polycyclic Pyridone Derivatives Modified from Baloxavir” (J Med Chem, 2021)

Columns and labels:
[1] = system: Influenza A virus; assay: Antiviral activity against Influenza A virus (A/Fort Monmouth/1/1947(H1N1)) infected in dog MDCK cells assessed as inhibition of virus-induced cytopathogenicity incubated for 48 hrs; assay type: functional, organism-based
[2] = system: MDCK; assay: Cytotoxicity against MDCK cells assessed as reduction in cell viability at 20 uM measured after 48 hrs by CCK8 assay; assay type: cell-based, Canis lupus familiaris; conditions: dog
[3] = Antiviral activity against Influenza A virus (A/WUHAN/359/1995(H3N2)) infected in dog MDCK cells assessed as inhibition of virus-induced cytopathogenicity incubated for 48 hrs; assay type: functional, cell-based
[4] = Selectivity index, ratio of TC50 for MDCK cells to IC50 for antiviral activity against Influenza A virus (A/Fort Monmouth/1/1947(H1N1)) infected in MDCK cells; assay type: toxicity, cell-based; conditions: dog, read-out: Selectivity Index
[5] = Selectivity index, ratio of TC50 for MDCK cells to IC50 for antiviral activity against Influenza A virus (A/WUHAN/359/1995(H3N2)) infected in MDCK cells; assay type: toxicity, cell-based; conditions: dog, read-out: Selectivity Index
[6] = system: Influenza A virus; assay: Antiviral activity against Influenza A virus (A/Fort Monmouth/1/1947(H1N1)) infected in dog MDCK cells assessed as downregulation of M2 mRNA level measured after 2 hrs by qRT-PCR; assay type: functional, organism-based
[7] = system: Influenza A virus; assay: Antiviral activity against Influenza A virus (A/Fort Monmouth/1/1947(H1N1)) infected in dog MDCK cells assessed as inhibition of M2 RNA level at 3 nM measured after 2 hrs by qRT-PCR relative to control; assay type: functional
[8] = system: Influenza A virus; assay: Antiviral activity against Influenza A virus (A/Fort Monmouth/1/1947(H1N1)) infected in dog MDCK cells assessed as inhibition of M2 protein measured after 18 hrs by immunofluorescence microscopic analysis; assay type: functional, organism-based
[9] = system: HEK293T; assay: Inhibition of Influenza A virus RdRP transfected in HEK293T cells co-transfected with NP/PA/PB1/PB2/pRL-SV40 incubated for 24 hrs by DualGlo-luciferase assay; assay type: cell-based
[10] = system: HEK293T; assay: Inhibition of Influenza A virus RdRP transfected in HEK293T cells co-transfected with NP/PA/PB1/PB2/pRL-SV40 at 1 nM incubated for 24 hrs by minireplicon based dual luciferase assay relative to control; assay type: cell-based
[11] = Cytotoxicity against MDCK cells assessed as reduction in cell viability measured after 48 hrs by CCK8 assay; assay type: cell-based, Canis lupus familiaris; conditions: dog, read-out: TC50
[12] = Half life in human liver microsomes in presence of NADPH generating system by LC-MS/MS analysis; assay type: ADME, Microsome
[13] = Clearance in human liver microsomes in presence of NADPH generating system by LC-MS/MS analysis; assay type: ADME, Microsome
[14] = Half life in rat liver microsomes in presence of NADPH generating system by LC-MS/MS analysis; assay type: ADME, Microsome
[15] = Clearance in rat liver microsomes in presence of NADPH generating system by LC-MS/MS analysis; assay type: ADME, Microsome
[16] = Half life in mouse liver microsomes in presence of NADPH generating system by LC-MS/MS analysis; assay type: ADME, Microsome
[17] = Clearance in mouse liver microsomes in presence of NADPH generating system by LC-MS/MS analysis; assay type: ADME, Microsome
[18] = Half life in Sprague-Dawley rat at 5 mg/kg, po measured after 24 hrs by LC-MS/MS analysis; assay type: ADME, organism-based; conditions: in vivo
[19] = Tmax in Sprague-Dawley rat at 5 mg/kg, po measured after 24 hrs by LC-MS/MS analysis; assay type: ADME, organism-based; conditions: in vivo
[20] = Cmax in Sprague-Dawley rat at 5 mg/kg, po measured after 24 hrs by LC-MS/MS analysis; assay type: ADME, organism-based; parameters: dose 5 mg/kg, time 24 hrs, route po; conditions: in vivo
[21] = AUC (0 to t) in Sprague-Dawley rat at 5 mg/kg, po measured after 24 hrs by LC-MS/MS analysis; assay type: ADME, organism-based; parameters: time 24 hrs, dose 5 mg/kg, route po; conditions: in vivo
[22] = AUC (0 to infinity) in Sprague-Dawley rat at 5 mg/kg, po measured after 24 hrs by LC-MS/MS analysis; assay type: ADME, organism-based; parameters: time 24 hrs, dose 5 mg/kg, route po; conditions: in vivo
[23] = Oral bioavailability Sprague-Dawley rat at 5 mg/kg measured after 24 hrs by LC-MS/MS analysis; assay type: ADME, organism-based; conditions: in vivo

Row | Structure (SMILES) | IC50 [1] | Activity [2] | IC50 [3] | selectivity ratio [4] | selectivity ratio [5] | Activity [6] | CC50 at 48 h [11] | other results
1 | O=C1c2c(O)c(=O)ccn2N(C2c3ccccc3C=Cc3ccccc32)[C@@H]2COCCN12 | 0.00042 µM | Non-Toxic | 0.00038 µM | 450000 | 497000 | Dose-dependent effect | 189 µM | inhibition at 0.003 µM [7]: 88.5%; Activity [8]: Dose-dependent effect; inhibition [9]: Dose-dependent effect; inhibition [10]: 50%; half-life [12]: 221 h; CLH [13]: 79.04 µmol/min/g; half-life [14]: 73.8 h; CLH [15]: 14.49 microL/ml/min; half-life [16]: 31.4 h; CLH [17]: 73.9 microL/ml/min; half-life [18]: 1.7 h; Tmax [19]: 0.83 h; Cmax [20]: 88.1 ng/mL; AUC(0-t) at 24 h [21]: 295 ng·h/mL; AUC(0-inf) [22]: 311 ng·h/mL; bioavailability [23]: 22.9%
2 | O=C1c2c(O)c(=O)ccn2N(C2c3ccccc3C=Cc3ccc(Br)cc32)[C@@H]2COCCN12 (mixture of isomers) | 0.0194 µM | Non-Toxic | 0.0267 µM | > 10300 | > 7490 | – | > 200 µM | –
3 | O=C1c2c(O)c(=O)ccn2N(C2c3ccccc3C=Cc3ccc(Cl)cc32)[C@@H]2COCCN12 (mixture of isomers) | 0.0143 µM | – | 0.0152 µM | 1440 | 1330 | – | 20.1 µM | –
4 | Cc1ccc2c(c1)C(N1[C@@H]3COCCN3C(=O)c3c(O)c(=O)ccn31)c1ccccc1C=C2 (mixture of isomers) | 0.0393 µM | Non-Toxic | 0.111 µM | 1330 | 472 | – | 52.4 µM | –
5 | O=C1c2c(O)c(=O)ccn2N(C2c3ccccc3C=Cc3c(Cl)cccc32)[C@@H]2COCCN12 (mixture of isomers) | 0.00059 µM | – | 0.00053 µM | 14500 | 16100 | Dose-dependent effect | 8.53 µM | inhibition at 0.003 µM [7]: 76.3%; Activity [8]: Dose-dependent effect; inhibition [9]: Dose-dependent effect; inhibition [10]: 53.5%
6 | O=C1c2c(O)c(=O)ccn2N(C2c3ccccc3C=Cc3cc(Br)ccc32)[C@@H]2COCCN12 (mixture of isomers) | 0.0106 µM | – | 0.0151 µM | 2050 | 1440 | – | 21.7 µM | –
7 | O=C1c2c(O)c(=O)ccn2N(C2c3ccccc3C=Cc3c(F)cccc32)[C@@H]2COCCN12 (mixture of isomers) | 0.00039 µM | – | 0.00057 µM | 49600 | 34000 | Dose-dependent effect | 19.4 µM | inhibition at 0.003 µM [7]: 86%; Activity [8]: Dose-dependent effect; inhibition [9]: Dose-dependent effect; inhibition [10]: 48.5%
8 | O=C1c2c(O)c(=O)ccn2N(C2c3ccccc3C=Cc3cc(F)ccc32)[C@@H]2COCCN12 (mixture of isomers) | 0.00051 µM | Non-Toxic | 0.00082 µM | 117000 | 72600 | Dose-dependent effect | 59.5 µM | –
9 | O=C1c2c(O)c(=O)ccn2N(C2c3ccccc3C=Cc3ccc(F)cc32)[C@@H]2COCCN12 (mixture of isomers) | 0.00291 µM | Non-Toxic | 0.00177 µM | > 68700 | > 113000 | Dose-dependent effect | > 200 µM | –
10 | COc1ccc2c(c1)C(N1[C@@H]3COCCN3C(=O)c3c(O)c(=O)ccn31)c1ccccc1C=C2 (mixture of isomers) | 0.281 µM | Non-Toxic | 0.128 µM | > 711 | > 1560 | – | > 200 µM | –
11 | O=C1c2c(O)c(=O)ccn2N(C2c3ccccc3C=Cc3cc(Cl)ccc32)[C@@H]2COCCN12 (mixture of isomers) | 0.00717 µM | – | 0.00469 µM | 2670 | 4090 | – | 19.2 µM | –
